# Measurements as given in US8163804B2 (priority 2005, dated 2012).
# Where two headings read alike, the source gives them in different places.
# What was measured:
# [1] = system: Oriental Fruit Moth (Grapholita molesta); experiment: Control test on oriental fruit moth of pear, spray, rate of infected fruit after 40 days; type: in vivo; conditions: 40 days after spraying
# Procedure: (§1) Control Test on Oriental Fruit Moth (Grapholita molesta) and Scab (Venturia nashicola) of Pear
# (§2) A liquid chemical which was prepared to the prescribed concentration was sufficiently sprayed on 17-year-old pears (cultivar: Hosui) (early June). After 40 days from spraying, the number of infected fruits due to Grapholita molesta was examined for all fruit in the plot, and the rate of infected fruit was calculated. Furthermore, after 14 days from spraying, infection of Venturia nashicola was examined by the degrees for optional 200 leaves in the plot and the severity index was calculated according to the following equation. Severity index=Z(number of infected leaves by the degrees×index)×100/(number of examined leaves×5)
# [2] = system: Scab (Venturia nashicola); experiment: Control test on scab of pear, spray, severity index after 14 days; type: in vivo; conditions: 14 days after spraying
# Procedure: as §1, §2
# [3] = system: Cucumber Moth (Diaphania indica); experiment: Insecticidal test on cucumber moth, sprayed cucumber leaves, mortality; type: in vivo; conditions: for Diaphania indica Mortality (%): 10 ppm
# Procedure: (§3) Insecticidal Test on Cucumber Moth (Diaphania indica) and Control Test on Powdery Mildew (Sphaerotheca fuliginea) of Cucumbers
# (§4) A liquid chemical which was prepared to the prescribed concentration was sufficiently sprayed on cucumbers (cultivar: sagami-hanpaku) cultured in a greenhouse. After 7 days from spraying, leaves were cut off and put into a plastic cup (diameter: 10 cm, height: 10 cm) along with 5 of second-stage larvae of Diaphania indica, and the mortality was examined 4 days thereafter. Furthermore, 1 day after spraying, the leaves of cucumbers which were previously arranged to be infected by pathogen were uniformly wiped with Sphaerotheca fuliginea thereon using a paintbrush for inoculation and examined after 10 days thereafter. The area occupied by lesion per leaf of cucumber was examined in accordance with the following index, and the control value was calculated from the average severity index of each plot according to the following equation (two replications).
# [4] = system: Powdery Mildew (Sphaerotheca fuliginea); experiment: Control test on powdery mildew of cucumbers, spray, control value from severity index; type: in vivo
# Procedure: as §3, §4
# Severity Index • 0: No lesion • 1: Lesion area was not more than 5% • 2: Lesion area was from 6 to 25% • 3: Lesion area was from 26 to 50% • 4: Lesion area was not less than 51% Control Value=(1−average severity in the treated plot/average severity in the untreated plot)×100
# [5] = system: Turnip Moth (Agrotis segetum); experiment: Control test on turnip moth of cabbage, soil treatment, rate of infected stumps after 7 days; type: in vivo; conditions: 7 days after treatment
# Procedure: (§5) Control Test on Turnip Moth (Agrotis segetum) and Clubroot (Plasmodiophora brassicae) of Cabbage due to Soil Treatment
# (§6) A powder in a prescribed amount was mixed to soil and cabbages (cultivar: shiki-kaku) cultured on a cell medium were planted out. After 7 days from the treatment, the number of infected stumps due to Agrotis segetum was examined and the rate of infected stumps was calculated. Furthermore, after 60 days from the treatment, stumps were picked out, and lesion formation of Plasmodiophora brassicase was examined according to the degrees of severity. The control value was calculated from the average severity index of each plot according to the following equation. In the Table, gai represents the amount of active ingredients (g).
# [6] = system: Clubroot (Plasmodiophora brassicae); experiment: Control test on clubroot of cabbage, soil treatment, control value after 60 days; type: in vivo; conditions: 60 days after treatment
# Procedure: as §5, §6
# Severity Index • 0: No clubroot attached • 1: Clubroot was attached at a portion of from 1 to 25% of the whole root • 2: Clubroot was attached at a portion of from 25 to 50% of the whole root • 3: Clubroot was attached at a portion of from 50 to 75% of the whole root • 4: Clubroot was attached at a portion of from 75% or more of the whole root Control Value=(1−average severity in the treated plot/average severity in the untreated plot)×100
# [7] = system: Green Peach Aphid (Myzus persicae); type: in vivo; conditions: 3 ppm, foliar spray on eggplant, 5 days after spraying
# [8] = system: Resistant Cotton Melon Aphid (Aphis gossypii); type: in vivo; conditions: 3 ppm, foliar spray on cucumber, 5 days after spraying
# [9] = system: Small Brown Planthopper (Laodelphax striatellus); experiment: Insecticidal test on small brown planthopper, sprayed rice seedlings, mortality after 6 days; type: in vivo; conditions: 3 ppm, sprayed rice seedlings, 6 days after treatment
# Procedure: Insecticidal Test on Small Brown Planthopper (Laodelphax striatellus)
# A liquid chemical which was diluted and prepared to the prescribed concentration was sprayed on rice seedlings (cultivar: koshihikari), air-dried, and then 10 three-stage insects of Laodelphax striatellus were put into a glass test tube having a diameter of 3 cm and a height of 10 cm along with the seedlings. The test tube was cotton plugged. After 6 days from the treatment, the number of surviving insects was examined and the mortality was calculated (two replications of 10 insects per plot).
# [10] = system: 2-spotted Spider Mite (Tetranychus urticae); experiment: Insecticidal test on 2-spotted spider mite, kidney bean leaf disc with eggs, hatchability of larvae after 6 days; type: in vivo; conditions: 50 ppm; 6 days after spraying
# Procedure: Insecticidal Test on 2-spotted Spider Mite (Tetranychus urticae)
# A plastic cup having a diameter of 8 cm was filled with water and covered by a lid with a hole having a diameter of 1 cm. Absorbent cotton was put on the top of the lid and dropped into water from the lid such that the absorbent cotton was always in a wet state due to a capillary phenomenon. A leaf disc having a diameter of 2 cm was prepared with primary leaves of kidney beans (cultivar: Green top) and placed on the aforementioned absorbent cotton. 4 adult female insects of Tetranychus urticae were inoculated thereon. Next day, the adult female insects were removed, and then the number of insect egg was examined. A liquid chemical which was prepared to the prescribed concentration was sprayed by using a vertical sprayer. After spraying, the resulting cup was allowed to stand in an isothermal chamber maintained at 25 degree centigrade. After 6 days from spraying, the number of hatched larvae that survived on the leaf disc was examined and the hatchability of larvae was calculated (two replications of one concentration per chemical).
# [11] = system: Tiger Moth (Trichoplusia ni); experiment: Insecticidal test on tiger moth, cabbage leaf dip, mortality after 6 days; type: in vivo; conditions: 0.5 ppm; 6 days after treatment
# Procedure: Insecticidal Test on Tiger Moth (Trichoplusia ni)
# Cut leaves of cabbages (cultivar: shiki-kaku) were immersed in a liquid chemical which was diluted and prepared to the prescribed concentration for 30 seconds, air-dried, and then put into a plastic vessel having a diameter of 9 cm. Each of 10 second-stage insects of Trichoplusia ni was inoculated and the resulting vessel was allowed to stand in an isothermal chamber maintained at 25 degree centigrade. After 6 days from the treatment, the number of surviving insects was examined and the mortality was calculated (two replications of 10 insects per plot).
# [12] = system: Common Straight Swift Butterfly (Parnara guttata); experiment: Control test on common straight swift butterfly of paddy rice, powder spray, number of insects after 20 days (Test Example 8); type: in vivo; conditions: 20 days after spraying
# [13] = system: Rice Blast (Pyricularia oryzae); type: in vivo
# [14] = system: Common Straight Swift Butterfly (Parnara guttata); experiment: Control test on common straight swift butterfly of paddy rice, powder spray, number of insects after 20 days (Test Example 9); type: in vivo; conditions: 20 gai/10a; 20 days after spraying
# Text: (§7) Control Test on Common Straight Swift Butterfly (Parnara guttata) and Sheath Blight (Rhizoctonia solani) of Paddy Rice
# (§8) A powder of a prescribed amount was sprayed on rice (cultivar: koshihikari) after 70 days from the transplantation (middle of May) Leaves on which Parnara guttata was parasitic before spraying were eliminated. After 20 days from spraying, the number of insects was examined for 100 stumps in each plot. Furthermore, 7 days before spraying, Rhizoctonia solani cultured on a bran medium was inoculated into the base of the plant. After 30 days from spraying, the number of infected stumps was examined for 100 stumps in each plot and the rate of infected stumps was calculated. In the Table, gai represents the amount of active ingredients (g).
# [15] = system: Sheath Blight (Rhizoctonia solani); experiment: Control test on sheath blight of paddy rice, powder spray, rate of infected stumps after 30 days; type: in vivo; conditions: 20 gai/10a; 30 days after spraying
# Text: as §7, §8
# [16] = system: Small Brown Planthopper (Laodelphax striatellus); experiment: Control test on small brown planthopper, nursery box application of paddy rice, number of parasitic insects after 40 and 60 days; type: in vivo; conditions: 5 gai/box
# Procedure: (§9) Control Test on Small Brown Planthopper (Laodelphax striatellus) and Rice Leafroller (Cnaphalocrocis medinalis) on Nursery Box Application of Paddy Rice
# (§10) Rice (cultivar: Nihonbare) cultured in a nursery box was treated with 50 g of a granule formulation per box, and then transplanted to the rice field. For the control effect against Laodelphax striatellus, the number of parasitic insects was examined for 30 stumps per plot after 40 days and 60 days from the transplantation. In addition, for the control effect against Cnaphalocrocis medinalis, the number of infected leaves was examined for 100 stumps per plot after 50 days from the transplantation, and the infected leaf rate was calculated. In the Table, gai represents the amount of active ingredients (g).
# [17] = system: Rice Leafroller (Cnaphalocrocis medinalis); experiment: Control test on rice leafroller, nursery box application of paddy rice, infected leaf rate after 50 days; type: in vivo; conditions: 5 gai/box; 50 days after transplantation
# Procedure: as §9, §10
# [18] = system: Rice Blast (Pyricularia oryzae); type: in vivo; conditions: in vivo
# [19] = system: Rice Striped Stem Borer (Chilo suppressalis); conditions: 5 gai/box
smiles,measurement,setting,value
CCCc1cc(C(F)(C(F)(F)F)C(F)(F)F)cc(Br)c1NC(=O)c1cccc(NC(=O)c2ccccc2)c1 [Compound 178],Grapholita molesta Infected fruit rate (%),[1]; 50 ppm,3.4%
same,Venturia nashicola Severity index,[2]; 50 ppm,51.5
same,Diaphania indica Mortality (%),[3],90%
same,Sphaerotheca fuliginea Control value,[4]; 10 ppm,0
same,Agrotis segetum Infected stump rate (%),[5]; 100 gai/10a,5.6%
same,Plasmodiophora brassicae Control value,[6]; 100 gai/10a,5
CC(C)CC(C)c1sccc1NC(=O)c1cn(C)nc1C(F)(F)F (stereo not drawn) [penthiopyrad],Grapholita molesta Infected fruit rate (%),[1]; 75 ppm,19.8%
same,Venturia nashicola Severity index,[2]; 75 ppm,3.7
same,mortality at 3.15 ppm,"[3]; Diaphania indica, 3.15 ppm",0%
same,Sphaerotheca fuliginea Control value,[4]; 3.15 ppm,95
O=C(Nc1cccc(C(=O)Nc2c(Br)cc(C(F)(C(F)(F)F)C(F)(F)F)cc2SC(F)(F)F)c1)c1ccccc1 [Compound 210],Control rate (%),[7],7%
same,Control rate (%),[8],12%
same,Mortality (%),[9],15%
same,Hatchability of larvae (%),[10],80%
same,Mortality (%),[11],70%
same,Number (insects/100 stumps),[12]; 20 gai/10a,1 insects/100 stumps
same,Pyricularia oryzae Control value,[13]; in vivo,3
same,Number of insects (number/100 stumps),[14],1 number/100 stumps
same,Rate of infected stumps (%),[15],98%
same,Grapholita molesta Infected fruit rate (%),[1]; 50 ppm,1.7%
same,Venturia nashicola Severity index,[2]; 50 ppm,50.6
same,Diaphania indica Mortality (%),[3],95%
same,Sphaerotheca fuliginea Control value,[4]; 10 ppm,0
same,Agrotis segetum Infected stump rate (%),[5]; 100 gai/10a,2.8%
same,Plasmodiophora brassicae Control value,[6]; 100 gai/10a,0
"Cc1cc(C(F)(C(F)(F)F)C(F)(F)F)cc(C)c1NC(=O)c1cccc(NC(=O)c2ccccc2)c1F [Compound No. 601, N-(2,6-dimethyl-4-heptafluoroisopropyl)phenyl 3-(benzoylamino)-2-fluorobenzamide]",Number (insects/100 stumps),[12]; 20 gai/10a,1 insects/100 stumps
same,Pyricularia oryzae Control value,[13]; in vivo,7
same,Number of insects (number/100 stumps),[14],2 number/100 stumps
same,Rate of infected stumps (%),[15],96%
same,Grapholita molesta Infected fruit rate (%),[1]; 50 ppm,2.3%
same,Venturia nashicola Severity index,[2]; 50 ppm,53.0
same,Diaphania indica Mortality (%),[3],95%
same,Sphaerotheca fuliginea Control value,[4]; 10 ppm,0
same,Agrotis segetum Infected stump rate (%),[5]; 100 gai/10a,2.8%
same,Plasmodiophora brassicae Control value,[6]; 100 gai/10a,0
Cc1cc(C(F)(C(F)(F)F)C(F)(F)F)cc(C)c1NC(=O)c1cccc(N(C)C(=O)c2ccc(Cl)nc2)c1F [Compound 1247],Control rate (%),[7],6%
same,Control rate (%),[8],10%
same,Mortality (%),[9],5%
same,Hatchability of larvae (%),[10],74%
same,Laodelphax striatellus Number of parasitic insects/30 stumps,[16]; 40 days,69 insects/30 stumps
same,Laodelphax striatellus Number of parasitic insects/30 stumps,[16]; 60 days,121 insects/30 stumps
same,Cnaphalocrocis medinalis Infected leaf rate (%),[17],0.25%
same,Mortality (%),[11],65%
O=C1OCc2c(Cl)c(Cl)c(Cl)c(Cl)c21 [fthalide],Number (insects/100 stumps),[12]; 100 gai/10a,150 insects/100 stumps
same,Pyricularia oryzae Control value,"[13]; 100 gai/10a, panicle blast, 30 days after spraying",90
C[C@H]1O[C@H](O[C@H]2[C@H](O)[C@@H](O)[C@@H](O)[C@H](O)[C@@H]2O)[C@@H](N)C[C@@H]1NC(=N)C(=O)O [kasugamycin],Number (insects/100 stumps),[12]; 12 gai/10a,162 insects/100 stumps
same,Pyricularia oryzae Control value,"[13]; 12 gai/10a, panicle blast, 30 days after spraying",91
Cc1cc(C(F)(C(F)(F)F)C(F)(F)F)cc(C)c1NC(=O)c1cccc(N(C)C(=O)c2cccnc2)c1F [Compound 1244],Laodelphax striatellus Number of parasitic insects/30 stumps,[16]; 40 days,72 insects/30 stumps
same,Laodelphax striatellus Number of parasitic insects/30 stumps,[16]; 60 days,132 insects/30 stumps
same,Cnaphalocrocis medinalis Infected leaf rate (%),[17],0.25%
CC(Oc1ccc(Cl)cc1Cl)C(=O)NC(C)(C#N)C(C)C (stereo not drawn) [fenoxanil],Number (insects/100 stumps),[12]; 40 gai/10a,155 insects/100 stumps
same,Pyricularia oryzae Control value,"[13]; 40 gai/10a, panicle blast, 30 days after spraying",88
O=[N+]([O-])c1ccc(NS(=O)(=O)c2ccc(Cl)c(C(F)(F)F)c2)c(Cl)c1 [flusulfamide],Agrotis segetum Infected stump rate (%),[5]; 60 gai/10a,36.1%
same,Plasmodiophora brassicae Control value,[6]; 60 gai/10a,91
Cc1cc(C(F)(C(F)(F)F)C(F)(F)F)cc(C)c1NC(=O)c1cccc(N(C)C(=O)c2cccnc2F)c1F [Compound 1246],Laodelphax striatellus Number of parasitic insects/30 stumps,[16]; 40 days,77 insects/30 stumps
same,Laodelphax striatellus Number of parasitic insects/30 stumps,[16]; 60 days,137 insects/30 stumps
same,Cnaphalocrocis medinalis Infected leaf rate (%),[17],0.28%
same,Pyricularia oryzae Control value,[18],0
same,Chilo suppressalis Mortality (%),[19],95%
Cc1cc(C(F)(C(F)(F)F)C(F)(F)F)cc(C)c1NC(=O)c1cccc(NC(=O)c2cccnc2Cl)c1F [compound 639],Control rate (%),[7],10%
same,Control rate (%),[8],12%
same,Mortality (%),[9],0%
same,Hatchability of larvae (%),[10],82%
same,Laodelphax striatellus Number of parasitic insects/30 stumps,[16]; 40 days,65 insects/30 stumps
same,Laodelphax striatellus Number of parasitic insects/30 stumps,[16]; 60 days,120 insects/30 stumps
same,Cnaphalocrocis medinalis Infected leaf rate (%),[17],0.39%
same,Mortality (%),[11],80%
same,Pyricularia oryzae Control value,[18],3
same,Chilo suppressalis Mortality (%),[19],90%
